Laboratory results reported in US12662473B2, “Inhibitors for programmed cell necrosis and preparation method therefor and use thereof” (SHANGHAI INSTITUTE OF ORGANIC CHEMISTRY, CHINESE ACADEMY OF …, priority 2019, dated 2026).
Read-outs that look alike come from different tables or passages of the source.

Assays:
L929 cells = experiment: TNF-induced programmed cell necrosis inhibition, Cell Titer-Glo viability; assay type: cell-based, mouse; details: read-out: EC50 inhibitory activity on programmed cell necrosis
Source text: (§1) The adopted biological assay protocol was: the programmed necroptosis effect of compounds on TNF-induced in FADD (Fas-Associated Death Domain) deficient Jurkat cells and L929 cells.
(§2) In order to verify the inhibitory effect of the compounds of the present invention on programmed cell necrosis at the cellular level, cell types closely related to the RIP1 pathway, namely FADD deficient Jurkat cells (human peripheral blood leukemia T cell line) and L929 cells, were selected. Two different stimulation methods were used: tumor necrosis factor (TNFα) used alone, or TNFα used in combination with mitochondria-derived cysteine aspartate activator (SMAC). Cells viability was calculated by detecting chemiluminescence values, and the biological activity of the compound for inhibiting programmed cell necrosis can be obtained.
(§3) Methods: FADD deficient Jurkat cells: FADD deficient Jurkat cells (human peripheral blood leukemia T cell line) were cultured in vitro. After growing to the logarithmic growth phase, the cells were collected, centrifuged at 1000 rpm for 5 min, the supernatant was discarded, and the cell concentration was adjusted to 2.5×10^5/mL. Cells were seeded into 384-well plates, 40 μl per well. 5 μL of Smac (50 nM) diluted in cell culture medium and 5 μL of each compound were added to the corresponding wells. After pretreatment at 37° C. for 1 h, 5 μL of TNFα (50 ng/mL) diluted in cell culture medium was added to each well of the stimulation group, and 5 μL of the culture medium was added to the control group. The plate was cultured in a cell incubator (37° C., 5% CO2) for 14 h, and 15 μl of Cell Titer-Glo solution was added to each well, then incubated for 30 min at room temperature, and intracellular ATP level was measured by detecting luminescence. The unstimulated DMSO control wells were taken as 100% cell viability. L929 cells: The L929 cells (mouse fibroblasts) were cultured in vitro, digested and diluted to 6.25×10^4/ml, and the cells were seeded into 384-well plates, 40 μl per well. The plate was placed in a cell incubator (37° C., 5% CO2) for 12 hours. 5 μL of Smac (500 nM) diluted in cell culture medium and 5 μL of each compound were added to the corresponding wells. After pretreatment at 37° C. for 1 h, 5 μL of TNFα (500 ng/mL) diluted in cell culture medium was added to each well of the stimulation group, and 5 μL of the culture medium was added to the control group. After the plate was cultured for 14 h in a cell incubator (37° C., 5% CO2), 15 μl of Cell Titer-Glo solution was added to each well. The plate was incubated at room temperature for 30 min, and intracellular ATP level was measured by detecting luminescence. The unstimulated DMSO control wells were taken as 100% cell viability. EC50 values of the compounds were calculated using Prism Graphpad statistical software.
L929 cells: The L929 cells (mouse fibroblasts) were cultured in vitro, digested and diluted to 6.25×10^4/ml, and the cells were seeded into 384-well plates, 40 μl per well. The plate was placed in a cell incubator (37° C., 5% CO2) for 12 hours. 5 μL of Smac (500 nM) diluted in cell culture medium and 5 μL of each compound were added to the corresponding wells. After pretreatment at 37° C. for 1 h, 5 μL of TNFα (500 ng/mL) diluted in cell culture medium was added to each well of the stimulation group, and 5 μL of the culture medium was added to the control group. After the plate was cultured for 14 h in a cell incubator (37° C., 5% CO2), and 15 μl of Cell Titer-Glo solution was added to each well, then incubated at room temperature for 30 min, and intracellular ATP level was measured by detecting luminescence. The unstimulated DMSO control wells were taken as 100% cell viability.

FADD−/− Jurkat cells = experiment: as above; assay type: cell-based
Source text: as §1, §2, §3
FADD deficient Jurkat cells: FADD deficient Jurkat cells (human peripheral blood leukemia T cell line) were cultured in vitro. After growing to the logarithmic growth phase, the cells were collected, centrifuged at 1000 rpm for 5 min, the supernatant was discarded, and the cell concentration was adjusted to 2.5×10^5/mL. Cells were seeded into 384-well plates, 40 μl per well. 5 μL of Smac (50 nM) diluted in cell culture medium and 5 μL of each compound were added to the corresponding wells. After pretreatment at 37° C. for 1 h, 5 μL of TNFα (50 ng/mL) diluted in cell culture medium was added to each well of the stimulation group, and 5 μL of the culture medium was added to the control group. After the plate was cultured in a cell incubator (37° C., 5% CO2) for 14 h, 15 μl of Cell Titer-Glo solution was added to each well. The mixture was incubated for 30 min at room temperature, and intracellular ATP level was measured by detecting luminescence. The unstimulated DMSO control wells were taken as 100% cell viability.

[1] = Mus musculus, L929, 14 h, L929 cells (mouse), TNFa + SM164
[2] = Mus musculus, L929, L929 cells (mouse), TNFa
[3] = Homo sapiens, Jurkat, 14 h, TNFa + SM164, read-out: EC50 inhibitory activity on programmed cell necrosis
[4] = Homo sapiens, Jurkat, TNFa, read-out: EC50 inhibitory activity on programmed cell necrosis

Row | Structure (SMILES) | EC50 (L929 cells; [1]) [µM] | EC50 (L929 cells; [2]) [µM] | EC50 (FADD−/− Jurkat cells; [3]) [µM] | EC50 (FADD−/− Jurkat cells; [4]) [µM] | EC50 (L929 cells; L929 cells (mouse), TNFa + SM164) [µM] | EC50 (L929 cells; L929 cells (mouse), TNFa) [µM] | EC50 (FADD−/− Jurkat cells; FADD−/− Jurkat cells (human), TNFa + SM164, read-out: EC50 inhibitory activity on programmed cell necrosis) [µM] | EC50 (FADD−/− Jurkat cells; FADD−/− Jurkat cells (human), TNFa, read-out: EC50 inhibitory activity on programmed cell necrosis) [µM]
1 | Cc1ccc([C@@H]2CCCN2C(=O)C(C)(C)Oc2ccc(Cl)cc2)cc1 (stereo in doubt) [QY-5-21] | 0.208 | 0.0599 | 0.696 | 0.093 |  |  |  | 
2 | CN1C(=O)NC(Cc2c[nH]c3c(Cl)cccc23)C1=O (stereo not drawn) [Compound 7-Cl-O-Nec-1, reference compound] |  |  |  |  | 0.924 | 0.155 | 0.337 | 0.076
3 | Cc1noc([C@@H]2CCCN2C(=O)C(C)(C)Oc2ccccc2)n1 [QY-2-25] | > 10 | 2.67 | > 10 | 6.18 |  |  |  | 
4 | Cc1noc([C@@H]2CCCN2C(=O)C(C)(C)Oc2ccc(F)cc2)n1 [QY-2-26] | 0.982 | 0.182 | > 10 | 0.417 |  |  |  | 
5 | Cc1noc([C@@H]2CCCN2C(=O)C(C)(C)Oc2ccc(N(C)C)cc2)n1 [QY-2-27] | > 10 | > 10 | > 10 | 9.38 |  |  |  | 
6 | CC(C)(Oc1ccc(Cl)cc1)C(=O)N1CCC[C@H]1c1nnc(N)s1 [QY-2-34] | > 10 | > 10 | > 10 | > 10 |  |  |  | 
7 | Cc1nc([C@@H]2CCCN2C(=O)C(C)(C)Oc2ccc(Cl)cc2)sc1C [QY-2-38] | > 10 | 1.55 | > 10 | 1.7 |  |  |  | 
8 | CC(C)(Oc1ccc(Cl)cc1)C(=O)N1CCC[C@H]1c1nccs1 [QY-2-39] | 8.92 | 1.9 | > 10 | 1.06 |  |  |  | 
9 | Cc1csc([C@@H]2CCCN2C(=O)C(C)(C)Oc2ccc(Cl)cc2)n1 [QY-2-52] | 2.37 | 0.419 | 2.24 | 0.464 |  |  |  | 
10 | Cc1cc([C@@H]2CCCN2C(=O)C(C)(C)Oc2ccc(Cl)cc2)on1 [QY-2-53] | 1.17 | 0.172 | 1.34 | 0.199 |  |  |  | 
11 | COc1ccc(OC(C)(C)C(=O)N2CCC[C@H]2c2nc(C)no2)cc1 [QY-2-54] | > 10 | 6.19 | > 10 | > 10 |  |  |  | 
12 | Cc1noc([C@@H]2CCCN2C(=O)C(C)(C)Oc2ccc(C#N)cc2)n1 [QY-2-55] | 0.233 | 0.025 | 2.22 | 0.14 |  |  |  | 
13 | Cc1noc([C@@H]2CCCN2C(=O)C(C)(C)Oc2ccc(-c3ccccc3)cc2)n1 [QY-2-56] | > 10 | 2.12 | > 10 | > 10 |  |  |  | 
14 | Cc1noc([C@@H]2CCCN2C(=O)C(C)(C)Oc2ccc(I)cc2)n1 [QY-2-75] | > 10 | 2.45 | 5.15 | 0.608 |  |  |  | 
15 | Cc1noc([C@@H]2CCCN2C(=O)C(C)(C)Oc2ccc(OC(F)(F)F)cc2)n1 [QY-2-76] | > 10 | > 10 | 3.96 | > 10 |  |  |  | 
16 | Cc1ccc(OC(C)(C)C(=O)N2CCC[C@H]2c2nc(C)no2)cc1 [QY-2-77] | > 10 | 4.26 | > 10 | 7.9 |  |  |  | 
17 | Cc1noc([C@@H]2CCCN2C(=O)C(C)(C)Oc2ccc(Oc3ccccc3)cc2)n1 [QY-2-78] | > 10 | > 10 | > 10 | 0.127 |  |  |  | 

Row | Structure (SMILES) | EC50 (L929 cells; [1]) [µM] | EC50 (L929 cells; [2]) [µM] | EC50 (FADD−/− Jurkat cells; [3]) [µM] | EC50 (FADD−/− Jurkat cells; [4]) [µM] | EC50 (L929 cells; L929 cells (mouse), TNFa + SM164) [µM] | EC50 (L929 cells; L929 cells (mouse), TNFa) [µM] | EC50 (FADD−/− Jurkat cells; FADD−/− Jurkat cells (human), TNFa + SM164, read-out: EC50 inhibitory activity on programmed cell necrosis) [µM] | EC50 (FADD−/− Jurkat cells; FADD−/− Jurkat cells (human), TNFa, read-out: EC50 inhibitory activity on programmed cell necrosis) [µM]
18 | Cc1noc([C@@H]2CCCN2C(=O)C(C)(C)Oc2cccc(Cl)c2)n1 [QY-2-79] | 1.62 | 0.212 | 8.93 | 2.03 |  |  |  | 
19 | CC(C)(Oc1ccc(Cl)cc1)C(=O)N1CCC[C@H]1c1nc(C2CC2)no1 [QY-2-100] | > 10 | 2.48 | > 10 | 2.24 |  |  |  | 
20 | CCCCc1noc([C@@H]2CCCN2C(=O)C(C)(C)Oc2ccc(Cl)cc2)n1 [QY-2-103] | > 10 | > 10 | > 10 | > 10 |  |  |  | 
21 | CC(C)(Oc1ccc(Cl)cc1)C(=O)N1CCC[C@H]1c1nc(Cc2ccccc2)no1 [QY-2-104] | > 10 | > 10 | > 10 | > 10 |  |  |  | 
22 | Cc1noc([C@@H]2CCCN2C(=O)COc2ccc(Cl)cc2)n1 [QY-3-4] | 59.1 | > 10 | > 10 | > 10 |  |  |  | 
23 | Cc1conc1[C@@H]1CCCN1C(=O)C(C)(C)Oc1ccc(Cl)cc1 [QY-3-11] | 1.57 | 0.404 | 3.27 | 0.389 |  |  |  | 
24 | CC(C)c1noc([C@@H]2CCCN2C(=O)C(C)(C)Oc2ccc(Cl)cc2)n1 [QY-3-17] | 52.4 | 5.38 | > 10 | 3.91 |  |  |  | 
25 | Cc1noc([C@@H]2CCCN2C(=O)C(C)(C)Oc2ccc(Cl)c(F)c2)n1 [QY-3-26] | 1.24 | 0.196 | 1.28 | 0.111 |  |  |  | 
26 | Cc1noc([C@@H]2CCCN2C(=O)C(C)(C)Oc2ccc(Cl)cc2F)n1 [QY-3-27, (S)-2-(4-Chloro-2-fluorophenoxy)-2-methyl-1-(2-(3-methyl-1,2,4-oxadiazol-5-yl)pyrrolidin-1-yl)propan-1-one] | 0.792 | 0.133 | 0.849 | 0.056 |  |  |  | 
27 | Cc1noc([C@@H]2CCCN2C(=O)C(C)(C)Oc2ccc3ccccc3c2)n1 [QY-3-28] | 4.08 | 0.878 | > 10 | 5.55 |  |  |  | 
28 | CC(C)(Oc1ccc(Cl)cc1)C(=O)N1CCCC1c1ccccc1 (stereo not drawn) [QY-3-29] | 0.157 | 0.047 | 0.664 | 0.035 |  |  |  | 
29 | Cc1noc([C@@H]2CCCN2C(=O)C2(Oc3ccc(Cl)cc3)CC2)n1 [QY-3-35] | > 10 | 160 | > 10 | 10.5 |  |  |  | 
30 | Cc1noc([C@@H]2CCCN2C(=O)C(C)(C)Sc2ccc(Cl)cc2)n1 [QY-3-36] | 9.4 | 2.25 | 8.36 | 0.983 |  |  |  | 
31 | Cc1cccc(C2CCCN2C(=O)C(C)(C)Oc2ccc(Cl)cc2)c1 (stereo not drawn) [QY-3-39] | 1.48 | 0.386 | 5.28 | 0.712 |  |  |  | 
32 | Cc1noc([C@@H]2CCCN2C(=O)C2(Oc3ccc(Cl)cc3)CCCC2)n1 [QY-3-46] | > 10 | 2.01 | 5.83 | 0.789 |  |  |  | 
33 | CCN(CC)Cc1noc([C@@H]2CCCN2C(=O)C(C)(C)Oc2ccc(Cl)cc2)n1 [QY-3-51] | > 10 | > 10 | > 10 | 59.2 |  |  |  | 
